For assay [1], the system named is tyrosine hydroxylase positive mesencephalic neurons injured by 6-OHDA. Put plainly: Neuroprotective effect on damage induced by 6-OHDA on culture of mesencephalic neurons. It counts as cell-based. As to conditions: Rattus norvegicus, Neuron; 10 uM; 6-OHDA 15 μM, 48h; read-out: % reversion of TH positive neurons (6-OHDA-mediated degradation of dopaminergic neurons). As to the method:
The protective effect of compounds of the present disclosure was determined on 6-OHDA-mediated injury on mesencephalon neuronal cultures.
A female Wistar rat (Janvier; France) of 15 days gestation was terminated by cervical dislocation, the fetuses were removed from the uterus and their brains were harvested and placed in ice-cold medium (Leibovitz's L15 medium, Gibco). Only ventral mesencephalic flexure was used for the cell preparations. The midbrain was dissociated by trypsinization. The reaction was stopped, and the suspension was triturated and centrifuged. The pellet of dissociated cells was resuspended in chemically defined medium consisted of Neurobasal (Gibco, 21103049), containing B27 supplement (Gibco, A3582801) and L-glutamine (Gibco, 25030081), 10 ng/ml (BDNF; Pepro Tech, France, 450-02) and 1 ng/ml (GDNF; Pepro Tech, 450-51).
Viable primary rat embryo mesencephalic cells were counted and seeded on 96-multi-wells plate precoated with poly-L-lysine. Cells were maintained in a humidified incubator at 37° C. in 5% CO2-95% air atmosphere and medium changed on day 2. On day 6, the culture medium was removed and replaced by new media without neurotrophic factors containing the compounds of the present disclosure (50-10 μM) or vehicle (0.1% DMSO). After 1h exposure, injury of mesencephalon neuronal cultures was induced by 6-OHDA (15 μM) for further 48h. A mixture of the growth factors GDNF (1 ng/ml) and BDNF (10 ng/ml) were used as reference compound. On day 8, the tyrosine hydroxylase positive neurons were evaluated. Cultures were fixed 30 min at 4° C. with paraformaldehyde in PBS (4%, Sigma). After, cells were permeabilized with 0.1% Triton X100 for 30 min, saturated with PBS containing 3% of BSA (bovine serum albumin) and incubated 2h with anti-tyrosine hydroxylase antibody (Sigma, 1:10000; clone TH-2) at 1/10000 in PBS containing 0.5% of BSA. Cells were washed three times with PBS containing 0.5% of BSA and incubated 1h with goat anti mouse antibody coupled with AF488 (Invitrogen A11001) diluted at 1/1000 in PBS containing 0.5% of BSA. Finally, nuclei were stained with DAPI (Thermo fisher, D1306) at 1/1000 in PBS containing 0.5% of BSA. After rinsing with PBS, the plate was visualized and examined with Cell Insight HCS (Thermo Scientific) to determine the number of tyrosine hydroxylase positive cells per well.
The results for each well were expressed as a percentage by setting the density of tyrosine hydroxylase positive cells under control conditions to 100%. Then the result for each condition was reported as mean±SEM from 4 independent cultures.
A global analysis of the data was performed using a one-way analysis of variance (ANOVA), followed by Fisher's Protected Least Significant Difference when applicable. The level of significance was set to p<0.05.

The subject of assay [2] is Very long-chain acyl-CoA dehydrogenase (VLCAD) primary fibroblasts GM17475. In words: NADP+/NADPH (NADP/NADPH-Glo), VLCAD fibroblasts GM17475. It counts as cell-based. As to conditions: Homo sapiens, Fibroblast, 24h, read-out: Increase in Total NADP+ + NADPH. As to the method: Primary adherent fibroblasts were cultured in minimum essential medium (MEM) (Gibco, 25030081) supplemented with 2 mM L-Glutamine (Gibco, 25030081), 15% fetal bovine serum (FBS) (Gibco, 26400044) and 1% penicillin/streptomycin (Gibco, 5140122) at 37° C. and 5% CO2. Cells were collected for either passaging or experiment at ˜70-80% confluence. Cells were obtained by trypsinization and seeded in cell culture microplates either white plate (Thermo Fisher Scientific, 152028) for luminescent measurement or black plate (Thermo Fisher Scientific, 165305) for fluorescent based read out for different assays listed below. Cells were obtained by trypsinization and […] were seeded and allowed to adhere for 16-18 hours to have confluency around 70-80% in the cell well with culture media. After 24 hours prior to measurements (37° C., 5% CO2) media was changed to Dulbecco's Modified Eagle Medium (DMEM, Agilent Seahorse cat #103575-100) with the appropriate supplements as stated below.
Primary fibroblasts assayed were Propionic Acidemia (PA) (GM03590 Coriell Institute for Medical Research, Tsi 6337 Trans-Hit Bio), Methylmalonic Acidemia (MMA) (Tsi 5224 Trans-Hit Bio), Subnormal activation of pyruvate dehydrogenase complex (PDH) (GM01503 Coriell Institute for Medical Research), Very long-chain acyl-CoA dehydrogenase (VLCAD) (GM17475), Leigh Syndrome (LS) (GM03672, GM13411 Coriell Institute for Medical Research), Pyruvate Carboxylase Deficiency (PC) (GM00444 Coriell Institute for Medical Research). 10 μM of Compounds were added for 2 hours in PA, MMA lines and for 24h for the other fibroblast lines.
Assay was performed according to manufacturer instructions (NADP+/NADPH-Glo Assay Promega, G9082). Assay required a plate for total measurement of NADP+/NADPH and a plate for individual measurement of NADP+ or NADPH. For every assay a 12-point standard curve is prepared ranging from 400 nM to 0.625 nM. Media is removed and replaced with 50 μl of PBS for both assays.
For individual NADP+/NADPH measurements, 50 μl of 1% DTAB (Sigma, D5047) (cell lysis reagent) in 0.2N NaOH was added to the plates and 100 μl of lysate was split into two plates with 50 μl each from which ratio of NADP/NADPH can be calculated. 25 μl of 0.4N HCl were added to the NADP+ plates and both NADP+ and NADPH plates were heated at 60° C. for 15 minutes. The acid and heat treatment destroyed NADPH allowing individual NADP+ measurements while heating in basic conditions destroys NADP+ allowing individual NADPH measurement. After 15 minutes plates were allowed to come to room temperature and Trizma base (Sigma, T1699) was added to the NADP+ plates to neutralize the acid and HCl Trizma hydrochloride (Sigma, T2694) was added to the NADPH plates. The NADNADPH glo reagent was prepared by adding 125 μl of NAD cycling substrate, 125 μl of reductase, 125 μl of reductase substrate, 125 μl NAD cycling enzyme to a total of the 25 ml of NAD GLO reagent. 1:1 ratio of total volume of reagent was added to the individual NADP+, NADPH measurements (total 100 μl) and 50 μl were added for the total NAD/NADPH measurements. Luminescence was measured for 30-60 minutes within the linear range.
A total dead cell count was performed as described in Example 817 and only alive cells were used for analysis.

Assay [3] deals with Venular Endothelial cells (HUVEC) (4H system). In words: BioMAP 4H system (IL-4 and histamine). It counts as cell-based, human. As to conditions: procedure of Example 826; for inhibition at 1 µM / inhibition at 10 µM: Homo sapiens, HUVEC, 24 h.
For assay [4], the system named is Peripheral blood mononuclear cells co-cultured with B-cells (BT system). In words: cells. As to conditions: Homo sapiens, 72 h; for inhibition at 1 µM: read-out: % decrease in sIL-17.
Setting [5] is: VLCAD GM17475 P10, assay condition A (10 mM glucose, 2 mM L-glutamine, 1 mM pyruvate, 10% FBS).
Where [6] appears, read: 1 uM, read-out: % decrease in VEGFRII.
[7] abbreviates: VLCAD GM17475 P10, assay condition B (1 mM glucose, 2 mM L-glutamine, 1 mM pyruvate, 10% FBS).
The mark [8] stands for this setting: 10 uM, read-out: % decrease in VEGFRII.

Each structure is given as a SMILES string. Read-outs that look alike come from different tables or passages of the source.

With `CC(C)(CO)[C@@H](O)C(=O)NCCC(=O)NCCSC(=O)CCC(=O)O` [Compound 1, (R)-4-((2-(3-(2,4-dihydroxy-3,3-dimethylbutanamido)propanamido)ethyl)thio)-4-oxobutanoic acid], the inhibition at 10 µM in assay [1] is at least 10%.

`CC(C)(CO)[C@@H](O)C(=O)NCCC(=O)NCCSC(=O)CC(=O)CCC(=O)O` [Compound 2, 6-[(2-[3-[(2R)-2,4-dihydroxy-3,3-dimethylbutanamido]propanamido]ethyl)sulfanyl]-4,6-dioxohexanoic acid]: the activation at 10 µM in assay [2] (setting [5]) was at least 10%.

Take `COC(=O)CCC(=O)SCCNC(=O)CCNC(=O)[C@H](O)C(C)(C)COC(C)=O` [Compound 138]: the inhibition at 1 µM in assay [3] (setting [6]) and in assay [4] was at least 20% each time.

In the case of `COC(=O)CC(SCCNC(=O)CCNC(=O)[C@H](O)C(C)(C)COC(C)=O)C(=O)OC` (stereo partly drawn) [Compound 149, 1,4-dimethyl 2-[(2-[3-[(2R)-4-(acetyloxy)-2-hydroxy-3,3-dimethylbutanamido]propanamido]ethyl)sulfanyl]butanedioate], the “% increase in VEGRII” value in assay [3] (10 uM) is on record as at least 10%. Besides, the inhibition at 10 µM in assay [3] (10 uM, read-out: % decrease in E-Selectin) is at least 10%.

Turning to `CCCCCCC(=O)SCCNC(=O)CCNC(=O)[C@H](O)C(C)(C)CO` [Compound 372, (2R)—N-(2-[[2-(heptanoylsulfanyl)ethyl]carbamoyl]ethyl)-2,4-dihydroxy-3,3-dimethylbutanamide], in assay [3] (1 uM, read-out: % decrease in E-Selectin), the inhibition at 1 µM was at least 10%. Also, in assay [4] (read-out: % increase in sIL-6), the activation at 1 µM is at least 10%.

For the compound `CCC(=O)CC(=O)SCCNC(=O)CCNC(=O)[C@H](O)C(C)(C)CO` [Compound 382, (2R)-2,4-dihydroxy-3,3-dimethyl-N-[2-([2-[(3-oxopentanoyl)sulfanyl]ethyl]carbamoyl)ethyl]butanamide], the activation at 10 µM in assay [2] (setting [5]) was at least 10%.

With `CC(O)CC(O)CC(=O)SCCNC(=O)CCNC(=O)[C@H](O)C(C)(C)CO` (some centres unmarked) [Compound 400], the activation at 10 µM in assay [2] (setting [7]) was at least 10%.

Take `CC(O)CC(O)CC(O)CC(=O)SCCNC(=O)CCNC(=O)[C@H](O)C(C)(C)CO` (some centres unmarked) [Compound 401]: the activation at 10 µM in assay [2] (setting [7]) was at least 10%.

Take `COC(=O)CC(C(C)=O)C(=O)SCCNC(=O)CCNC(=O)[C@H](O)C(C)(C)CO` (some centres unmarked) [Compound 410]: in assay [2] (setting [5]), the activation at 10 µM is at least 10%.

For the compound `CC(=O)SCCNC(=O)CCNC(=O)[C@H](O)C(C)(C)COC(=O)[C@H](C)N` [Compound 502, (3R)-3-[(2-[[2-(acetylsulfanyl)ethyl]carbamoyl]ethyl)carbamoyl]-3-hydroxy-2,2-dimethylpropyl (2S)-2-aminopropanoate], the inhibition at 10 µM in assay [3] (setting [8]) was at least 10%. Besides, the inhibition at 1 µM in assay [4] is at least 20%. Further, the activation at 10 µM in assay [4] (read-out: % increase in sIL-6) was at least 10%.

Regarding `CC(=O)SCCNC(=O)CCNC(=O)[C@H](O)C(C)(C)COC(=O)CCC(=O)O` [Compound 1242, (R)-12-hydroxy-13,13-dimethyl-2,7,11,16-tetraoxo-15-oxa-3-thia-6,10-diazanonadecan-19-oic acid], the activation at 10 µM in assay [2] (setting [5]) was at least 10%.

Turning to `CC[C@@H](O)CC(=O)SCCNC(=O)CCNC(=O)[C@H](O)C(C)(C)CO` [Compound 1245, (2R)-2,4-dihydroxy-N-{2-[(2-{[(3R)-3-hydroxypentanoyl]sulfanyl}ethyl)carbamoyl]ethyl}-3,3-dimethylbutanamide], the activation at 10 µM in assay [2] (setting [5]) is at least 10%.

As for `CC(=O)OCC(C)(C)[C@@H](OC(C)=O)C(=O)NCCC(=O)NCCSC(C)=O` [Compound 1264, (1R)-3-(acetyloxy)-1-[(2-[[2-(acetylsulfanyl)ethyl]carbamoyl]ethyl)carbamoyl]-2,2-dimethylpropyl acetate], in assay [3] (setting [8]), the inhibition at 10 µM was at least 10%. Also, the activation at 10 µM in assay [2] (setting [5]) was at least 10%.

`CC(O)C(C(=O)SCCNC(=O)CCNC(=O)[C@H](O)C(C)(C)CO)C(C)O` (stereo partly drawn) [Compound 1285, (2R)-2,4-dihydroxy-N-[2-[(2-[[3-hydroxy-2-(1-hydroxyethyl)butanoyl]sulfanyl]ethyl)carbamoyl]ethyl]-3,3-dimethylbutanamide]: in assay [2] (setting [5]), the activation at 10 µM was at least 10%.

Regarding `COC(=O)CCC(=O)SCCNC(=O)CCNC(=O)[C@H](OC(=O)CN)C(C)(C)CO` [Compound 1294, methyl 4-[(2-[3-[(2R)-2-[(2-aminoacetyl)oxy]-4-hydroxy-3,3-dimethylbutanamido]propanamido]ethyl)sulfanyl]-4-oxobutanoate], the “% decrease in MCP-1” value in assay [3] (1 uM) is listed as at least 10%. The inhibition at 1 µM in assay [4] was at least 20%.

For the compound `COC(=O)CCC(=O)SCCNC(=O)CCNC(=O)[C@H](OC(=O)CNC(C)=O)C(C)(C)CO` [Compound 1298, methyl 4-[(2-[3-[(2R)-2-[(2-acetamidoacetyl)oxy]-4-hydroxy-3,3-dimethylbutanamido]propanamido]ethyl)sulfanyl]-4-oxobutanoate], in assay [3] (1 uM), the “% decrease in Eotaxin-3” value is reported as at least 10% and the “% decrease in MCP-1” value is at least 10%. The inhibition at 1 µM in assay [3] (setting [6]) is at least 10%. For the same compound, in assay [4] (read-out: % increase in sIL-6), the activation at 1 µM is at least 10%.

These data come from US20230107216A1, “PANTETHEINE DERIVATIVES AND USES THEREOF” (Comet Therapeutics, Inc., priority 2018, published 2023).
